These molecules were tested against T1, human neuropeptide Y5 receptor (Homo sapiens, UniProt Q15761) (assay: NPY5 HTS Centrifugation Assay: competition with 125I-PYY for binding to NPY5-transfected HEK293 cell membranes). Settings: 80 pM 125I-PYY, 1 hr room temperature, read-out: % Inh @ 3 uM (% Inhibition of ^125 I-PYY Binding).
T1 construct: expressed in transfected cells
T1 sequence (Q15761 1-445): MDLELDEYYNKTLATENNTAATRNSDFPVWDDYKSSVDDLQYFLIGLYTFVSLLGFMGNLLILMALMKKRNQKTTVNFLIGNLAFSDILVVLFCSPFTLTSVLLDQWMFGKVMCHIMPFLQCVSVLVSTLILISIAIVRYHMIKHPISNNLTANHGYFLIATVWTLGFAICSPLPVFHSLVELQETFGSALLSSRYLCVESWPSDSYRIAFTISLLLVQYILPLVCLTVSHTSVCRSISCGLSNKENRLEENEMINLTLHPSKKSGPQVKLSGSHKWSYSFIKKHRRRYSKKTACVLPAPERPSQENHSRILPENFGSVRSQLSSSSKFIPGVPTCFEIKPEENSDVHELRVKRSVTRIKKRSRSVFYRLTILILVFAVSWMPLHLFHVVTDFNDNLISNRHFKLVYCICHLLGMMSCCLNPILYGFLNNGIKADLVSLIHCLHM
Protocol: The compounds described in this invention were evaluated for binding to the human neuropeptide Y5 receptor.
The human NPY5 receptor cDNA (Genbank Accession number U66275) was inserted into the vector pClneo (Invitrogen) and transfected into human embryonic kidney cells (HEK-293) via Calcium phosphate method (Cullen 1987). Stably transfected cells were selected with G-418 (600 ug/mL). Stably transfected cells served as the source for the membranes for the NPY5 receptor binding assay.
NPY5-transfected HEK293 cells were grown to confluence in 150 cm^2 culture dishes. Cells were washed once with phosphate-buffered saline (Gibco Cat#14040-133). Cells were then incubated in phosphate-buffered saline without Calcium and without Magnesium, supplemented with 2 mM EDTA. Cells were incubated for 10 minutes at room temperature and the cells were collected by repetitive pipeting. Cells were formed into pellets and then frozen at -80 until needed. Frozen pellets were homogenized with a polytron at full speed for 12 seconds in a homogenization buffer (20 mM Tris HCl, 5 mM EDTA, pH 7.4). Homogenates were centrifuged for 5 minutes at 4C at 200 g. Supernatants were transferred to corex tubes and centrifuged for 25 minutes at 28,000 g. Pellets were re-suspended in Binding (20 mM HEPES, 10 mM NaCl, 0.22 mM KH2 PO4, 1.3 mM CaCl2, 0.8 mM MgSO4, pH 7.4). Membranes were kept on ice until use.
A competition binding assay, known to those skilled in the art, was used in which aminotetralins (I) compete with ^125 I-PYY for binding to cell membranes. In simple terms, the less ^125 I-PYY bound to the membranes implies that a compound is a good inhibitor (competitor). Bound ^125 I-PYY is determined by centrifugation of membranes, aspirating supernatant, washing away residual ^125 I-PYY and subsequently counting the bound sample in a g-counter.
Compounds to be tested were prepared as 10× stocks in binding buffer and added first to assay tubes (RIA vials, Sarstedt). Twenty (20) μL of each 10× compound stock is pipeted into vials and 80 μL of ^125 I-PYY (NEN catalog number NEX240), which has been diluted to a concentration of 200 pM in 0.25% BSA in binding buffer, is added to the compound tubes (final concentration of ^125 I-PYY is 80 pM). To each tube is added 100 μL of membranes and the mixture is agitated by pipeting 2 times. Samples are incubated for 1 hr at room temperature. Aluminum cast plates (Sarstedt) containing the vials are then centrifuged 10 minutes at 3200 rpm in a Sorvall RT6000. Supernatant is then aspirated. To each vial 400 μL PBS is added and this is then aspirated again. Vials are then put in carrier polypropylene 12×75 tube and counted in gamma counter (Packard). Non-specific binding is determined in the presence of 300 nM NPY. Percent inhibition of ^125 I-PYY binding is calculated by subtracting non-specific binding from the test samples (compound (I)), taking these counts and dividing by total binding, and multiplying by 100. Inhibitory concentration values (IC50) of compounds that show appreciable inhibition of ^125 I-PYY binding are calculated by obtaining percent inhibition of ^125 I-PYY binding values at different concentrations of the test compound, and using a graphing program such as GraphPad Prism (San Diego, Calif.) to calculate the concentration of test compound that inhibits fifty-percent of ^125 I-PYY binding (Table 4). These operations are known to those skilled in the art.

SMILES	inhibition at 3 µM
COc1ccc2c(c1)CCC(NC[C@H]1CC[C@H](CNS(=O)(=O)c3ccccc3)CC1)C2Cc1ccc(C(F)(F)F)cc1 (stereo partly drawn) [Compound 100]	93%
COc1ccc2c(c1)CCC(NC[C@H]1CC[C@H](CNS(=O)(=O)c3ccc(Br)cc3)CC1)C2Cc1ccccc1 (stereo partly drawn) [Compound 70]	95%
O=S(=O)(NC[C@H]1CC[C@H](CNC2CCc3cc(O)c(O)cc3C2Cc2ccccc2)CC1)c1ccccc1 (relative stereo) [Compound 109]	101%
COc1ccc2c(c1)CCC(NC[C@H]1CC[C@H](CNS(=O)(=O)c3ccccc3Cl)CC1)C2Cc1ccccc1 (relative stereo) [Compound 66]	99%
COc1ccc2c(c1)CCC(NC[C@H]1CC[C@H](CNS(=O)(=O)c3ccccc3)CC1)C2Cc1c(F)cccc1F (relative stereo) [Compound 89]	98%
COc1ccc2c(c1)CC[C@H](NC[C@H]1CC[C@H](CNS(=O)(=O)c3ccccc3[N+](=O)[O-])CC1)[C@@H]2Cc1ccccc1 (relative stereo) [Compound 54]	94%
COc1ccc2c(c1)CC[C@H](NCCCCCCCNS(=O)(=O)c1ccc3ccccc3c1)[C@@H]2Cc1ccccc1 (relative stereo) [Compound 47]	79%
O=S(=O)(NC[C@H]1CC[C@H](CNC2CCc3c(Cl)cccc3C2Cc2ccccc2)CC1)c1ccccc1 (relative stereo) [Compound 105]	98%
O=[N+]([O-])c1ccccc1S(=O)(=O)NC[C@H]1CC[C@H](CNC2CCc3cc(F)ccc3C2Cc2ccccc2)CC1 (relative stereo) [Compound 72]	106%
O=S(=O)(NC[C@H]1CC[C@H](CNC2CCc3cc(O)ccc3C2Cc2ccccc2)CC1)c1ccccc1 (stereo partly drawn) [Compound 71]	102%
COc1ccc2c(c1)CCC(NC[C@H]1CC[C@H](CNS(=O)(=O)c3ccccc3)CC1)C2Cc1cccc(C(F)(F)F)c1 (stereo partly drawn) [Compound 99]	99%
COc1ccc2c(c1)CC[C@H](NC[C@H]1CC[C@H](CNS(=O)(=O)c3ccc4ccccc4c3)CC1)[C@@H]2Cc1ccccc1 (relative stereo) [Compound 10, rac-[1α,2α(trans)]-N-[[[[[1,2,3,4-tetrahydro-6-methoxy-1-(phenylmethyl)-2-naphthalenyl]amino]methyl]-4-cyclohexyl]methyl]2-naphthalenesulfonamide]	96%
COc1ccc2c(c1)CCC(NC[C@H]1CC[C@H](CNS(=O)(=O)c3ccccc3)CC1)C2Cc1ccc([N+](=O)[O-])cc1 (stereo partly drawn) [Compound 87]	84%
COc1ccc2c(c1)CC[C@H](NC[C@H]1CC[C@H](CNS(=O)(=O)c3ccc4ccccc4c3)CC1)[C@@H]2c1ccccc1 (relative stereo) [Compound 34, [1α,2α(trans)]-N-[[[[[1,2,3,4-tetrahydro-6-methoxy-1-phenyl-2-naphthalenyl]amino]methyl]-4-cyclohexyl]methyl]2-naphthlenesulfonamide]	46%
O=S(=O)(NC[C@H]1CC[C@H](CNC2CCc3cc(F)c(F)cc3C2Cc2ccccc2)CC1)c1ccccc1 (relative stereo) [Compound 107]	103%
COc1ccc2c(c1)CCC(NC[C@H]1CC[C@H](CNS(=O)(=O)c3ccccc3)CC1)C2Cc1ccc2ccccc2c1 (relative stereo) [Compound 81]	89%
O=S(=O)(NC[C@H]1CC[C@H](CNC2CCc3cc(F)ccc3C2Cc2ccccc2)CC1)c1ccc(Cl)cc1Cl (stereo partly drawn) [Compound 76]	99%
COc1ccc2c(c1)CCC(NC1CCC(NS(=O)(=O)c3ccc4ccccc4c3)CC1)C2Cc1ccccc1 (stereo not drawn) [Compound 50]	44%

SMILES	inhibition at 3 µM
O=S(=O)(NC[C@H]1CC[C@H](CNC2CCc3cc(F)ccc3C2Cc2ccccc2)CC1)c1ccc(Cl)c(Cl)c1 (stereo partly drawn) [Compound 78]	92%
CCC[C@@H]1c2ccc(OC)cc2CC[C@@H]1NC[C@H]1CC[C@H](CNS(=O)(=O)c2ccccc2)CC1 (relative stereo) [Compound 42, rac-[1α,2α(trans)]-N-[[[[[1,2,3,4-tetrahydro-6-methoxy-1-(n-propyl)-2-naphthalenyl]amino]methyl]-4-cyclohexyl]methyl] benzenesulfonamide]	101%
COc1ccc2c(c1)CCC(NC[C@H]1CC[C@H](CNS(=O)(=O)c3ccccc3F)CC1)C2Cc1ccccc1 (relative stereo) [Compound 57]	98%
O=S(=O)(NC1CCC(CNC2CCc3ccccc3C2Cc2cccnc2)CC1)c1ccccc1 (stereo not drawn) [Compound 112]	95%
COc1cccc(CC2c3ccc(OC)cc3CCC2NC[C@H]2CC[C@H](CNS(=O)(=O)c3ccc4ccccc4c3)CC2)c1 (stereo partly drawn) [Compound 84]	82%
COc1ccc2c(c1)CCC(NC[C@H]1CC[C@H](CNS(=O)(=O)c3cccc([N+](=O)[O-])c3)CC1)C2Cc1ccccc1 (stereo partly drawn) [Compound 62]	95%
COc1ccc2c(c1)CCC(NC[C@H]1CC[C@H](CNS(=O)(=O)c3ccccc3CN)CC1)C2Cc1ccccc1 (stereo partly drawn) [Compound 67]	91%
COc1ccc2c(c1)CCC(NCCCCCCCCNS(=O)(=O)c1ccc3ccccc3c1)C2Cc1ccccc1 (stereo not drawn) [Compound 48]	68%
COc1ccc2c(c1)CCC(NC[C@H]1CC[C@H](CNS(=O)(=O)c3ccccc3[N+](=O)[O-])CC1)C2Cc1ccc([N+](=O)[O-])cc1 (relative stereo) [Compound 88]	85%
COc1ccc2c(c1)CCC(NC[C@H]1CC[C@H](CNS(=O)(=O)c3ccccc3)CC1)C2Cc1ccccc1OC (relative stereo) [Compound 85]	74%
COc1ccc2c(c1)CCC(NC[C@H]1CC[C@H](CNS(=O)(=O)c3cccc(F)c3)CC1)C2Cc1ccccc1 (stereo partly drawn) [Compound 60]	94%
COc1ccc2c(c1)CCC(NC[C@H]1CC[C@H](CNS(=O)(=O)c3ccccc3[N+](=O)[O-])CC1)C2Cc1ccccc1OC (stereo partly drawn) [Compound 91]	92%
COc1ccc2c(c1)CCC(NC[C@H]1CC[C@H](CNS(=O)(=O)c3ccccc3C(F)(F)F)CC1)C2Cc1ccccc1 (stereo partly drawn) [Compound 65]	0%
COc1ccc2c(c1)CCC(NC[C@H]1CC[C@H](CNS(=O)(=O)c3ccc([N+](=O)[O-])cc3)CC1)C2Cc1ccccc1 (stereo partly drawn) [Compound 63]	93%
COc1cc2c(cc1OC)C(Cc1ccccc1)C(NC[C@H]1CC[C@H](CNS(=O)(=O)c3ccccc3)CC1)CC2 (relative stereo) [Compound 108]	99%
COc1ccc2c(c1)CC[C@H](NC[C@H]1CC[C@H](CNS(=O)(=O)c3cccs3)CC1)[C@@H]2Cc1ccccc1 (relative stereo) [Compound 59]	102%
COc1ccc2c(c1)CC[C@H](NC[C@H]1CC[C@H](CNS(=O)(=O)c3ccc4ccccc4c3)CC1)[C@@H]2Cc1cccnc1 (relative stereo) [Compound 18, rac-[1α,2α(trans)]-N-[[[[[1,2,3,4-tetrahydro-6-methoxy-1-(3-pyridinylmethyl)-2-naphthalenyl]amino]methyl]-4-cyclohexyl]methyl]2-naphthalenesulfonamide]	96%
O=S(=O)(NC[C@H]1CC[C@H](CNC2CCc3cc(F)ccc3C2Cc2ccccc2)CC1)c1ccccc1Cl (relative stereo) [Compound 73]	107%

Reference: patent publication US6140354A, “N-substituted aminotetralins as ligands for the neuropeptide Y Y5 receptor useful in the treatment of obesity and other disorders” (Ortho-McNeil Pharmaceutical, Inc., priority 1999, dated 2000)
